Laboratory results: patent US6835382B2, “Ii peptide therapeutics to enhance antigen presentation” (University of Massachusetts, priority 1996, dated 2004)
Non-standard residues stand in square brackets, D forms with d. Cit = NC(=O)NCCC[C@H](N)C(=O)O; Orn = NCCC[C@H](N)C(=O)O

What was measured:
HLA-DR1 molecules = assay: release of biotin-labeled hMBP(90-102) from HLA-DR1 without unlabeled antigenic peptide (assay I); type: binding, human; conditions: for Relative Release: Table 36, AE101 series compound 64 μM, fraction of o.d. of positive control (PBS only = 1.0; negative control = 0.0)
[1] = biological target: T1, murine E^d MHC class II allele (Mus musculus, UniProt P01904+P01915); assay: simultaneous assay, E^d allele (A20 APC, G28.C9 T hybridoma, HEL106-116; HT-2 [3H]TdR readout); type: cell-based; set-up: The A20 and CH27 B cell lymphoma lines express H-2^d and H-2^k alleles, respectively; endogenous in cells; host or cells: A20 B cell lymphoma (mitomycin C-treated or paraformaldehyde-fixed); conditions: for Times Baseline Response, Ed: Table 3
T1 sequence (P01904 26-255): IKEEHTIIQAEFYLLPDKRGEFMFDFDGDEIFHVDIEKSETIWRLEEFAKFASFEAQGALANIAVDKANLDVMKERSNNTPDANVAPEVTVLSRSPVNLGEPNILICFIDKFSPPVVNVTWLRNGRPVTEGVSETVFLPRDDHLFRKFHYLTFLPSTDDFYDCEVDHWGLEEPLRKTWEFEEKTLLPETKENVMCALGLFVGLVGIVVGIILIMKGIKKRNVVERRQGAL
T1 sequence (P01915 27-264 limits assumed): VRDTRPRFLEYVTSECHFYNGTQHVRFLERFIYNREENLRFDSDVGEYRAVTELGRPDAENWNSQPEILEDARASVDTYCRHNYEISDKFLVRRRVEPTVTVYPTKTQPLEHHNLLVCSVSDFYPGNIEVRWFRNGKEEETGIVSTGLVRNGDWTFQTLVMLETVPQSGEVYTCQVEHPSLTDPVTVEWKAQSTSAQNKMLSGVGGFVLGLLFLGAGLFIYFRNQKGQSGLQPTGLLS
Protocol: (§1) Examples 1-4 (Tables 1-18) will be briefly considered in order to establish the concept of tolerance discussed above. These examples describe experimental results observed in the so-called “simultaneous” assay. In the simultaneous assay four principle components are cultured together for a 24 hour period. The components of this culture, which are added simultaneously, are: (a) an antigenic peptide characterized by the ability to bind specifically into the antigenic peptide binding groove of an MHC class II molecule, (b) mitomycin C-treated, MHC class II-positive antigen presenting cells (APC) bearing the MHC class II allele required for binding of the specific antigenic peptide, and presentation of the specific antigenic peptide to the antigenic peptide-specific T cell hybridoma, (c) an effector compound of the present invention, and (d) an MHC class II allele-restricted T cell hybridoma specific for the antigenic peptide and the MHC class II allele restricting its presentation. Following incubation of this primary culture, an aliquot of its supernatant is transferred into a second culture well for incubation with an interleukin-dependent lymphoblastoid cell line. The degree of stimulation of that second, indicator cell by the interleukins which had been released from the activated T cell hybridoma in the primary culture is measured by quantitating tritiated thymidine deoxyribose {[^3H]TdR} uptake into the DNA of the HT-2 indicator cells of that second culture.
(§2) In the “simultaneous assay” the four components of the assay are cultured together for a 24 h period. The components of this primary culture, added at the same time or simultaneously, are: (a) the antigenic peptide, (b) mitomycin C-treated, MHC class II-positive antigen presenting cells (APC) with the MHC class II allele required for binding of the specific antigenic peptide and its presentation to the antigenic peptide-specific T cell hybridoma, (c) an AE101 series effector peptide, and (d) MHC class II allele-restricted T cell hybridoma specific for the antigenic peptide and the MHC class II allele restricting its presentation. At the end of the incubation of this primary culture, an aliquot of its supernatant is transferred into a second culture well for incubation with an interleukin-dependent lymphoblastoid cell line. The degree of stimulation of that second, indicator cell by the interleukins which had been released from the activated T cell hybridoma in the primary culture is measured by quantitating tritiated thymidine deoxyribose {[^3H]TdR} uptake into the DNA of the HT-2 indicator cells of that second culture.
(§3) For these various assays, the following antigenic peptides were used: HEL11-25, hen egg lysozyme 11-25, AMKRHGLDNYRGYSL(A^d) (SEQ ID NO:5); HEL46-61, hen egg lysozyme 46-61, NTDGSTDYGILQINSR(Ak) (SEQ ID NO:6); HEL106-116, hen egg lysozyme 106-116, NAWVAWRNRCK (E^d) (SEQ ID NO:7); PGCC81-104, pigeon cytochrome c 81-104, […] (Ek) (SEQ ID NO:8), and THMCC82-103, tobacco hornworm moth cytochrome c 82-103, […] (Ek) (SEQ ID NO:9). AE101 series peptides were obtained from commercial sources. In general, the purity and composition of each peptide was confirmed by HPLC separation and mass spectrometry. The native protein antigens were HEL, hen egg lysozyme, and PGCC, pigeon cytochrome C. They were obtained from commercial sources.
(§4) For the experiments of these Examples, several T cell hybridomas, which are specific for certain antigenic peptides, were used. The TPc9.1 T hybridoma is specific for pigeon cytochrome C 81-104 peptide presented on the murine class II MHC allele E^k. The TPc9.1 hybridoma responds heteroclitically to tobacco hornworm moth cytochrome c 82-103 on E^k. The 3A9 T hybridoma is specific for hen egg lysozyme 46-61 on A^k. The 9.30.B2 hybridoma is specific for hen egg lysozyme 11-25 on A^d, and the G28.C9 hybridoma is specific for hen egg lysozyme 106-116 on E^d. […]

[2] = system: murine E^k MHC class II allele; assay: simultaneous assay, E^k allele (CH27 APC, TPc9.1 T hybridoma, THMCC82-103 or PGCC81-104); type: cell-based; conditions: for Times Baseline Response, Ek: Table 3, values reduced relative to E^d by a factor of 10
Protocol: as §1, §2, §3, §4

[3] = biological target: soluble HLA-DR1 (HLA-DR alpha truncated after Asn192 with a C-terminal nine amino acid HA epitope tail; HLA-DR1 beta truncated after Lys198), made in Baculovirus-infected insect cells (human); assay: release ELISA: soluble HLA-DR1 tethered by 12CA5 and preloaded with biotin-hMBP(90-102); AE peptide 64 uM, 1 h 37 C, no unlabeled peptide; biotin still bound read by avidin-HRP (1.0 = PBS control, 0.0 = no DR1; low value = released)
[4] = Table 1, AE peptide 16 μM (second value), 0.4 μM HEL106-116, supernatant 1:4
[5] = Table 1, AE peptide 64 μM (first value), 0.4 μM HEL106-116, supernatant 1:4
[6] = Table 1, AE peptide 16 μM (second value), 0.075 μM THMCC82-103, supernatant 1:2
[7] = Table 1, AE peptide 64 μM (first value), 0.075 μM THMCC82-103, supernatant 1:2
[8] = Table 9, AE peptide 64 μM, supernatant 1:4
[9] = Table 9, AE peptide 64 μM, supernatant 1:4, normalized by a factor of 5
[10] = Table 6, AE peptide 64 μM, supernatant 1:4
[11] = Table 6, AE peptide 64 μM, supernatant 1:4, reduced by a factor of 5
[12] = Table 5, AE peptide 64 μM, supernatant 1:4
[13] = Table 5, AE peptide 64 μM, supernatant 1:4, normalized to E^d by a factor of 10
[14] = Table 10, AE peptide 16 μM (second value), supernatant 1:2
[15] = Table 10, AE peptide 64 μM (first value), supernatant 1:2
[16] = Table 10, AE peptide 64 μM, supernatant 1:2 (first value)
[17] = Table 10, AE peptide 64 μM, supernatant 1:4 (second value)
[18] = AE peptide 64 μM, supernatant 1:4

Molecule: KLPKSAKPVSQMR [AE103]
- Relative Release (HLA-DR1 molecules): 0.01
- Times Baseline Response, E^d [1, 4]: 1.3
- Times Baseline Response, E^d [1, 5]: 3.4
- Times Baseline Response, E^k [2, 6]: 0.7, 0.7
- Times Baseline Response, E^k [2, 7]: 0.7, 0.7

Molecule: SAKPVSQMR [AE105]
- Relative Release (HLA-DR1 molecules): 0.16
- Times Baseline Response, E^d [1, 4]: 1.1
- Times Baseline Response, E^d [1, 5]: 4.5
- Times Baseline Response, E^k [2, 6]: 0.8
- Times Baseline Response, E^k [2, 7]: 0.7

Molecule: YRMKLPKSAKPVSQ [AE106]
- release of hMBP(90-102) from HLA-DR1 (HLA-DR1 molecules; AE peptide at 125 nM, additional experiments): completely release
- Relative Release (HLA-DR1 molecules): −0.12
- Times Baseline Response, E^d [1, 4]: 4.4
- Times Baseline Response, E^d [1, 5]: 16.9
- Times Baseline Response, E^k [2, 6]: 0.9
- Times Baseline Response, E^k [2, 7]: 2.0

Molecule: Ac-LRMKLP[Orn]-NH2 [AE240]
- Times Baseline Response, E^d [1, 8]: 9.8
- Times Baseline Response, E^k [2, 9]: 11.5

Molecule: Ac-LRM HArg LPK-NH2 [AE212]
- Times Baseline Response, E^d [1, 10]: 13.2
- Times Baseline Response, E^k [2, 11]: 15.4

Molecule: Ac-LRMKLP HArg-NH2 [AE242]
- Times Baseline Response, E^d [1, 8]: 8.0
- Times Baseline Response, E^k [2, 9]: 17.6

Molecule: PKSAKPVSQMR [AE104]
- Relative Release (HLA-DR1 molecules): 0.02
- Times Baseline Response, E^d [1, 4]: 0.9
- Times Baseline Response, E^d [1, 5]: 2.6
- Times Baseline Response, E^k [2, 6]: 1.1
- Times Baseline Response, E^k [2, 7]: 0.8

Molecule: Ac-LR Y KLPK-NH2 [AE205]
- Times Baseline Response, E^d [1, 12]: 13.9
- Times Baseline Response, E^k [2, 13]: 27.4

Molecule: Ac-LRMKLP H-NH2 [AE243]
- Times Baseline Response, E^d [1, 8]: 7.2
- Times Baseline Response, E^k [2, 9]: 14.5

Molecule: Ac-YRMKLPASAK-NH2 [AE126]
- Times Baseline Response, E^d [1, 14]: 6.8
- Times Baseline Response, E^d [1, 15]: 18.2
- Times Baseline Response, E^k [2, 16]: 53.4
- Times Baseline Response, E^k [2, 17]: 56.4

Molecule: Ac-YRMKLPKSA-NH2 [AE111]
- Times Baseline Response, E^d [1, 4]: 18.8
- Times Baseline Response, E^d [1, 5]: 39.2
- Times Baseline Response, E^k [2, 6]: 2.0
- Times Baseline Response, E^k [2, 7]: 7.2

Molecule: Ac-LR D KLPK-NH2 [AE200]
- Times Baseline Response, E^d [1, 12]: 8.3
- Times Baseline Response, E^k [2, 13]: 3.9

Molecule: Ac-LR[Cit]KLPK-NH2 [AE196]
- Times Baseline Response, E^d [1, 12]: 13.6
- Times Baseline Response, E^k [2, 13]: 18.4

Molecule: Ac-LRM F LPK-NH2 [AE218]
- Times Baseline Response, E^d [1, 10]: 3.1
- Times Baseline Response, E^k [2, 11]: 9.0

Molecule: Ac-F RMKLPK-NH2 [AE189]
- Times Baseline Response, Ed [1, 18]: 12.1
- Times Baseline Response, Ek [2, 18]: 18.2

Molecule: Ac-M RMKLPK-NH2 [AE190]
- Times Baseline Response, Ed [1, 18]: 9.8
- Times Baseline Response, Ek [2, 18]: 15.2

Molecule: Ac-LRMKLP E-NH2 [AE245]
- Times Baseline Response, E^d [1, 8]: 0.9
- Times Baseline Response, E^k [2, 9]: 2.8

Molecule: Ac-LRM E LPK-NH2 [AE215]
- Times Baseline Response, E^d [1, 10]: 0.7
- Times Baseline Response, E^k [2, 11]: 0.4

Molecule: Ac-LRM Q LPK-NH2 [AE217]
- Times Baseline Response, E^d [1, 10]: 4.0
- Times Baseline Response, E^k [2, 11]: 4.4

Molecule: Ac-kplkmrl-NH2 [AE171]
- Times Baseline Response, E^d ([1]; Table 12, AE peptide 1 μM (fourth value), supernatant 1:2): 1.4
- Times Baseline Response, E^d ([1]; Table 12, AE peptide 4 μM (third value), supernatant 1:2): 1.4
- Times Baseline Response, E^d ([1]; Table 12, AE peptide 16 μM (second value), supernatant 1:2): 1.5
- Times Baseline Response, E^d ([1]; Table 12, AE peptide 64 μM (first value), supernatant 1:2): 1.3
- activity in simultaneous assay on E^d and E^k, in words ([1]; Tables 12 and 18): inactive
- Times Baseline Response, E^k ([2]; Table 12, AE peptide 1 μM (fourth value), supernatant 1:4): 1.9
- Times Baseline Response, E^k ([2]; Table 12, AE peptide 4 μM (third value), supernatant 1:4): 1.4
- Times Baseline Response, E^k ([2]; Table 12, AE peptide 16 μM (second value), supernatant 1:4): 2.0
- Times Baseline Response, E^k ([2]; Table 12, AE peptide 64 μM (first value), supernatant 1:4): 3.6

Molecule: Ac-D RMKLPK-NH2 [AE185]
- Times Baseline Response, Ed [1, 18]: 1.2
- Times Baseline Response, Ek [2, 18]: 0.9

Molecule: Ac-YRMKLPKAAK-NH2 [AE127]
- Times Baseline Response, E^d [1, 14]: 12.4
- Times Baseline Response, E^d [1, 15]: 19.1
- Times Baseline Response, E^k [2, 16]: 63.6
- Times Baseline Response, E^k [2, 17]: 63.4

Molecule: Ac-LRM[Cit]LPK-NH2 [AE211]
- Times Baseline Response, E^d [1, 10]: 1.7
- Times Baseline Response, E^k [2, 11]: 3.4

Molecule: Ac-K RMKLPK-NH2 [AE184]
- Times Baseline Response, Ed [1, 18]: 14.1
- Times Baseline Response, Ek [2, 18]: 11.8

Molecule: Ac-LR K KLPK-NH2 [AE199]
- Times Baseline Response, E^d [1, 12]: 12.1
- Times Baseline Response, E^k [2, 13]: 22.9

Molecule: YRMKLPKSAKPVSQ [AE106]
- Relative Release (fraction of positive control o.d.) [3]: -0.12
